Data as given in patent US4439426A, “Semisynthetic macrolidic antibiotics, intermediate compounds for their preparation and related pharmaceutical compositions containing them” (priority 1981, dated 1984).
In brackets after ≈: the same amount, converted by molar mass.

Assays:
Type in all cases: cell-based
[1] = system: Clostridium perfrigens ATCC 3624 LRP 206; test: microbe, parasite or virus in culture; conditions: ATCC3624, solid medium, anaerobic, read-out: Minimum inhibiting concentration
Excerpt: (§1) the bacteriostatic power, expressed as the minimum inhibiting concentration (MIC) against both aerobic and anaerobic, Gram positive and Gram negative, bacterial stocks: the related results are reported in the tables 2 and 3.

Salmonella typhy LRP 8 = test: microbe, parasite or virus in culture; conditions: LRP8, solid medium, read-out: Minimum inhibiting concentration
Excerpt: as §1

[2] = system: Staphylococcus aureus ATCC 6538 P LRP 39; test: Bacteriostatic power in liquid medium (MIC); conditions: liquid medium
Excerpt: as §1

[3] = system: Streptococcus pyogenes ATCC 8668 LRP 34; test: Bacteriostatic power in liquid medium (MIC); conditions: liquid medium
Excerpt: as §1

[4] = system: Streptococcus pneumoniae ATCC 6303 LRP 35; test: Bacteriostatic power in liquid medium (MIC); conditions: liquid medium
Excerpt: as §1

[5] = system: Streptococcus faecalis subs. zymogenes ATCC 12958 LRP 61; test: Bacteriostatic power in liquid medium (MIC); conditions: liquid medium
Excerpt: as §1

[6] = system: Corynebacterium diphteriae LRP 24; test: Bacteriostatic power in liquid medium (MIC); conditions: liquid medium
Excerpt: as §1

[7] = system: Staphylococcus aureus ATCC 6538 P LRP 39; test: Minimum bactericidal concentration (MBC)
Excerpt: (§2) the bacterial power, expressed as the minimum bactericidal power (MBC) against some Gram positive aerobic stocks (table 5).

[8] = system: Streptococcus pyogenes ATCC 8668 LRP 34; test: Minimum bactericidal concentration (MBC)
Excerpt: as §2

[9] = system: Streptococcus pneumoniae ATCC 6303 LRP 35; test: Minimum bactericidal concentration (MBC)
Excerpt: as §2

[10] = system: Corynebacterium diphteriae LRP 24; test: Minimum bactericidal concentration (MBC)
Excerpt: as §2

[11] = system: Streptococcus faecalis subs. zymogenes LRP 61; test: Minimum bactericidal concentration (MBC)
Excerpt: as §2

[12] = system: Klelsiella pneumoniae LRP 54; test: Bacteriostatic power in solid medium (MIC); conditions: solid medium
Excerpt: as §1

[13] = system: Streptococcus pneumoniae ATCC 6303 LRP 52; test: Bacteriostatic power in solid medium (MIC); conditions: solid medium
Excerpt: as §1

[14] = system: Acholeplasma laidlawii ATCC 23206 LRP 204; test: Bacteriostatic power in solid medium (MIC); conditions: solid medium
Excerpt: as §1

[15] = system: Streptococcus pyogenes ATCC 8668 LRP 34; test: Bacteriostatic power in solid medium (MIC); conditions: solid medium
Excerpt: as §1

[16] = system: Bacteroides fragilis ATCC 23745 LRP 205; test: Bacteriostatic power in solid medium (MIC); conditions: solid medium, anaerobic
Excerpt: as §1

Bacillus subtilis LRP 25 = test: Bacteriostatic power in solid medium (MIC); conditions: solid medium
Excerpt: as §1

Shigella sonnei LRP 5 = test: Bacteriostatic power in solid medium (MIC); conditions: LRP5, read-out: Minimum inhibiting concentration
Excerpt: as §1

[17] = system: Streptococcus faecalis subsp. zymogenes ATCC 12958 LRP 61; test: Bacteriostatic power in solid medium (MIC); conditions: solid medium
Excerpt: as §1

[18] = system: Streptococcus pneumoniae ATCC 6303 LRP 53; test: Bacteriostatic power in solid medium (MIC); conditions: solid medium
Excerpt: as §1

[19] = system: Staphylococcus aureus ATCC 14154 LRP 78; test: Bacteriostatic power in solid medium (MIC)
Excerpt: as §1

[20] = system: Streptococcus pyogenes ATCC 8668 LRP 197; test: Bacteriostatic power in solid medium (MIC); conditions: solid medium
Excerpt: as §1

Escherichia coli LRP 50 = test: Bacteriostatic power in solid medium (MIC); conditions: solid medium
Excerpt: as §1

[21] = system: Proteus vulgaris ATCC 6380 LRP 13; test: Bacteriostatic power in solid medium (MIC); conditions: solid medium
Excerpt: as §1

[22] = system: Streptococcus pneumoniae ATCC 6303 LRP 35; test: Bacteriostatic power in solid medium (MIC); conditions: solid medium
Excerpt: as §1

[23] = system: Micrococcus luteus ATCC 15957 LRP 193; test: Bacteriostatic power in solid medium (MIC); conditions: solid medium, Erythromycin resistant
Excerpt: as §1

[24] = system: Fusobacteriumnecrophroum ATCC 27852 LRP 210; test: Bacteriostatic power in solid medium (MIC); conditions: solid medium, anaerobic
Excerpt: as §1

[25] = system: Haemophilus influenzae ATCC 19418 LRP 213; test: Bacteriostatic power in solid medium (MIC)
Excerpt: as §1

[26] = system: Pseudomonas aeruginosa LRP 9; test: Bacteriostatic power in solid medium (MIC); conditions: solid medium
Excerpt: as §1

[27] = system: Staphylococcus aureus ATCC 6538P LRP 14; test: Bacteriostatic power in solid medium (MIC); conditions: solid medium, Penycilline resistant
Excerpt: as §1

[28] = system: Streptococcus faecalis LRP 7; test: Bacteriostatic power in solid medium (MIC); conditions: solid medium
Excerpt: as §1

[29] = system: Staphylococcus aureus ATCC 6538P LRP 39; test: Bacteriostatic power in solid medium (MIC); conditions: solid medium
Excerpt: as §1

[30] = system: Corynebacterium diphteriae LRP 24; test: Bacteriostatic power in solid medium (MIC); conditions: solid medium
Excerpt: as §1

[31] = system: Mycoplasma hominis I ATCC 14027 LRP 211; test: Bacteriostatic power in solid medium (MIC); conditions: solid medium
Excerpt: as §1

[32] = system: Neisseria gonorrhoeae ATCC 19424 LRP 214; test: Bacteriostatic power in solid medium (MIC); conditions: solid medium
Excerpt: as §1

[33] = system: Micrococcus luteus ATCC 9341 LRP 6; test: Bacteriostatic power in solid medium (MIC); conditions: solid medium
Excerpt: as §1

[34] = Streptococcus pyogenes, ATCC8668, read-out: Minimum inhibiting concentration
[35] = Streptococcus pneumoniae, ATCC6303, read-out: Minimum inhibiting concentration
[36] = Enterococcus faecalis, ATCC12958, read-out: Minimum inhibiting concentration
[37] = Corynebacterium, LRP24, read-out: Minimum inhibiting concentration
[38] = read-out: Minimum inhibiting concentration
[39] = Staphylococcus aureus, ATCC6538P, read-out: Minimum inhibiting concentration

Q: Which MIC [1] does the source give for CC[C@H]1OC(=O)[C@H](C)[C@@H](O[C@H]2C[C@@](C)(OC)[C@@H](O)[C@H](C)O2)[C@H](C)[C@@H](O[C@@H]2O[C@H](C)C[C@H](N(C)C)[C@H]2O)[C@](C)(O)C[C@@H](C)C(=O)[C@H](C)[C@@H](O)[C@H]1C [Erythromycin B, reference compound] here?
A: 1.56 µg/mL (≈ 2.17 µM)

Q: What about the MIC (Salmonella typhy LRP 8) of the same compound?
A: 25 µg/mL (≈ 34.8 µM)

Q: What about the MIC ([2]; Staphylococcus aureus, ATCC6538, read-out: Minimum inhibiting concentration) of the same compound?
A: 0.195 µg/mL (≈ 0.272 µM)

Q: And the MIC [3, 34]?
A: 0.024 µg/mL (≈ 0.0334 µM)

Q: What about the MIC [4, 35] of the same compound?
A: 0.049 µg/mL (≈ 0.0683 µM)

Q: What about the MIC [5, 36] of the same compound?
A: 0.39 µg/mL (≈ 0.543 µM)

Q: And the MIC [6, 37]?
A: 0.012 µg/mL (≈ 0.0167 µM)

Q: What about the MBC/MIC [7] of the same compound?
A: 32

Q: And the MBC ([7]; Staphylococcus aureus, ATCC6538, read-out: Minimum bactericidal concentration (MBC))?
A: 6.25 µg/mL (≈ 8.71 µM)

Q: What about the MBC/MIC [8] of the same compound?
A: 8

Q: What about the MBC ([8]; Streptococcus pyogenes, ATCC8668, read-out: Minimum bactericidal concentration (MBC)) of the same compound?
A: 0.195 µg/mL (≈ 0.272 µM)

Q: What about the MBC/MIC [9] of the same compound?
A: 4

Q: What about the MBC ([9]; Streptococcus pneumoniae, ATCC6303, read-out: Minimum bactericidal concentration (MBC)) of the same compound?
A: 0.195 µg/mL (≈ 0.272 µM)

Q: What about the MBC/MIC [10] of the same compound?
A: 16

Q: And the MBC ([10]; Corynebacterium, LRP24, read-out: Minimum bactericidal concentration (MBC))?
A: 0.195 µg/mL (≈ 0.272 µM)

Q: What about the MBC/MIC [11] of the same compound?
A: 16

Q: And the MBC ([11]; Enterococcus faecalis, read-out: Minimum bactericidal concentration (MBC))?
A: 6.25 µg/mL (≈ 8.71 µM)

Q: And the MIC [12, 38]?
A: 25 µg/mL (≈ 34.8 µM)

Q: And the MIC [13, 35]?
A: 0.024 µg/mL (≈ 0.0334 µM)

Q: What about the MIC ([14]; Acholeplasma laidlawii, ATCC23206, read-out: Minimum inhibiting concentration) of the same compound?
A: 0.097 µg/mL (≈ 0.135 µM)

Q: What about the MIC [15, 34] of the same compound?
A: 0.024 µg/mL (≈ 0.0334 µM)

Q: What about the MIC ([16]; Bacteroides fragilis, ATCC23745, read-out: Minimum inhibiting concentration) of the same compound?
A: 0.195 µg/mL (≈ 0.272 µM)

Q: What about the MIC (Bacillus subtilis LRP 25; Bacillus subtilis, LRP25, read-out: Minimum inhibiting concentration) of the same compound?
A: 0.049 µg/mL (≈ 0.0683 µM)

Q: And the MIC (Shigella sonnei LRP 5)?
A: 25 µg/mL (≈ 34.8 µM)

Q: And the MIC [17, 36]?
A: 0.195 µg/mL (≈ 0.272 µM)

Q: What about the MIC [18, 35] of the same compound?
A: 0.024 µg/mL (≈ 0.0334 µM)

Q: What about the MIC ([19]; Staphylococcus aureus, ATCC14154, read-out: Minimum inhibiting concentration) of the same compound?
A: 25 µg/mL (≈ 34.8 µM)

Q: What about the MIC [20, 34] of the same compound?
A: 0.024 µg/mL (≈ 0.0334 µM)

Q: And the MIC (Escherichia coli LRP 50; Escherichia coli, LRP50, read-out: Minimum inhibiting concentration)?
A: 25 µg/mL (≈ 34.8 µM)

Q: What about the MIC ([21]; Proteus vulgaris, ATCC6380, read-out: Minimum inhibiting concentration) of the same compound?
A: 25 µg/mL (≈ 34.8 µM)

Q: What about the MIC [22, 35] of the same compound?
A: 0.024 µg/mL (≈ 0.0334 µM)

Q: What about the MIC ([23]; Micrococcus luteus, ATCC15957, read-out: Minimum inhibiting concentration) of the same compound?
A: 25 µg/mL (≈ 34.8 µM)

Q: And the MIC [24, 38]?
A: 6.25 µg/mL (≈ 8.71 µM)

Q: And the MIC ([25]; Haemophilus influenzae, ATCC19418, read-out: Minimum inhibiting concentration)?
A: 6.25 µg/mL (≈ 8.71 µM)

Q: What about the MIC ([26]; Pseudomonas aeruginosa, LRP9, read-out: Minimum inhibiting concentration) of the same compound?
A: 25 µg/mL (≈ 34.8 µM)

Q: What about the MIC [27, 39] of the same compound?
A: 0.195 µg/mL (≈ 0.272 µM)

Q: What about the MIC ([28]; Enterococcus faecalis, LRP7, read-out: Minimum inhibiting concentration) of the same compound?
A: 0.195 µg/mL (≈ 0.272 µM)

Q: What about the MIC [29, 39] of the same compound?
A: 0.097 µg/mL (≈ 0.135 µM)

Q: What about the MIC [30, 37] of the same compound?
A: 0.012 µg/mL (≈ 0.0167 µM)

Q: And the MIC ([31]; Metamycoplasma hominis, ATCC14027, read-out: Minimum inhibiting concentration)?
A: 25 µg/mL (≈ 34.8 µM)

Q: What about the MIC ([32]; Neisseria gonorrhoeae, ATCC19424, read-out: Minimum inhibiting concentration) of the same compound?
A: 0.097 µg/mL (≈ 0.135 µM)

Q: What about the MIC ([33]; Micrococcus luteus, ATCC9341, read-out: Minimum inhibiting concentration) of the same compound?
A: 0.006 µg/mL (≈ 0.00836 µM)

Q: How did the Minimum inhibiting concentration [2] turn out when “(8S)-8-fluoroerythromycin A carbonate [P80206 carbonate]” was run?
A: 0.39 µg/mL

Q: And the Minimum inhibiting concentration [3]?
A: 0.024 µg/mL

Q: What about the Minimum inhibiting concentration [4] of the same compound?
A: 0.049 µg/mL

Q: What about the Minimum inhibiting concentration [5] of the same compound?
A: 0.195 µg/mL

Q: And the Minimum inhibiting concentration [6]?
A: 0.024 µg/mL

Q: And the Minimum inhibiting concentration [12]?
A: 12.5 µg/mL

Q: And the Minimum inhibiting concentration [13]?
A: 0.012 µg/mL

Q: And the Minimum inhibiting concentration [14]?
A: 0.195 µg/mL

Q: What about the Minimum inhibiting concentration [15] of the same compound?
A: 0.012 µg/mL

Q: And the Minimum inhibiting concentration [16]?
A: 0.78 µg/mL

Q: What about the Minimum inhibiting concentration (Bacillus subtilis LRP 25) of the same compound?
A: 0.049 µg/mL

Q: And the Minimum inhibiting concentration [17]?
A: 0.097 µg/mL

Q: What about the Minimum inhibiting concentration [18] of the same compound?
A: 0.012 µg/mL

Q: And the Minimum inhibiting concentration ([19]; solid medium, Erythromycin resistant)?
A: 25 µg/mL

Q: What about the Minimum inhibiting concentration [20] of the same compound?
A: 0.024 µg/mL

Q: And the Minimum inhibiting concentration (Escherichia coli LRP 50)?
A: 3.12 µg/mL

Q: And the Minimum inhibiting concentration [21]?
A: 25 µg/mL

Q: And the Minimum inhibiting concentration [22]?
A: 0.012 µg/mL

Q: And the Minimum inhibiting concentration [23]?
A: 25 µg/mL

Q: What about the Minimum inhibiting concentration [24] of the same compound?
A: 6.25 µg/mL

Q: And the Minimum inhibiting concentration ([25]; solid medium)?
A: 6.25 µg/mL

Q: What about the Minimum inhibiting concentration [26] of the same compound?
A: 25 µg/mL

Q: What about the Minimum inhibiting concentration [27] of the same compound?
A: 0.097 µg/mL

Q: What about the Minimum inhibiting concentration [28] of the same compound?
A: 0.097 µg/mL

Q: What about the Minimum inhibiting concentration [29] of the same compound?
A: 0.097 µg/mL

Q: What about the Minimum inhibiting concentration [30] of the same compound?
A: 0.024 µg/mL

Q: And the Minimum inhibiting concentration [31]?
A: 25 µg/mL

Q: What about the Minimum inhibiting concentration [32] of the same compound?
A: 0.049 µg/mL

Q: What about the Minimum inhibiting concentration [33] of the same compound?
A: 0.024 µg/mL
